The values that follow come from US20210047380A1, “A NEUROTROPHIC PEPTIDE FOR THE THERAPEUTIC TREATMENT OF NEURODEGENERATIVE AND/OR INFLAMMATORY DISEASES” (CONSIGLIO NAZIONALE DELLE RICERCHE, priority 2018, published 2021).

For data set [1], the system named is PC12 cells. The experiment in a line: PC12 cell neuronal differentiation test. It counts as cell-based, rat. The note with it: serum-free medium, 50 ng/ml mNGF or 100 ng/ml hproNGF-A or hproNGF-B, five-day incubation.
Data set [2] deals with PC12 cells. Description: Viability test on PC12 cells in suspension after serum deprivation. Type of data set: cell-based, rat. The note with it: 48 hours of culture, 50 ng/ml mNGF or 100 ng/ml hproNGF-A or hproNGF-B. As for the experimental part: FIG. 3B is a histogram showing the results from the viability test performed on PC12 cells in suspension after addition of the factors listed under A above.
PC12 cells were cultured in RPMI 1640 culture medium supplemented with 10% horse serum and 5% calf serum in a humidified atmosphere with 5% CO2 at 37° C. The exponentially growing cells were then seeded on 6-well plates containing poly-L-Lysine, to allow adherence of the cells to the bottom of the well.

In another data set the test system is extracellular proteases. The experiment in a line: Permanence in conditioned culture medium of stimulated PC12 cells (Western blot), resistance to extracellular proteases. It counts as in vitro ADME. The conditions noted are these: conditioned medium of rat PC12 cells, sampled at 0, 4, 8 and 24 hours post-stimulation. How it is done:
(§1) (A) Representative photomicrograph of the results from the Western blot analysis performed on conditioned culture media of rat PC12 cells stimulated with hproNGF-A (upper panel) or mNGF (lower panel) for 24 hours. The samples examined were collected at time 0 and 4, 8 and 24 hours post-stimulation. (B) Representative photomicrographs of the immunolocalization of the tyrosine hydroxylase enzyme on brain tissue (locus coeruleus) sections taken from rats after intranasal administration of proNGFA or mNGF.
In order to assess the resistance of hproNGF-A and mature NGF to the action of extracellular proteases, rat pheochromocytoma cells (PC12) were stimulated with either of the two peptides. Samples collected from conditioned cell culture media at successive times (time zero; 4, 8 and 24 hours post-stimulation) were subjected to Western blot assay in order to verify the permanence of hproNGF-A and mNGF in the culture medium.
(In general: A western blot detects proteins with antibodies after separation by electrophoresis.)

Data set [3] deals with noradrenergic fibres in the locus coeruleus. Description: Tyrosine hydroxylase immunolocalization in locus coeruleus after intranasal administration (central regulation of sympathetic activity). It counts as in vivo, rat. The note with it: adult rats. How it is done:
as §1
The present inventors also carried out experiments aimed at testing the effects of the action of NGF and the proNGF-A peptide on the central regulation of the neuronal sympathetic activity. In short, the NGF or proNGF-A peptides were administered intranasally to the brain parenchyma of adult rats. Subsequently, the noradrenergic neurons located in the locus coeruleus, a brain region responsible for the central control of the functionality of the sympathetic nervous system, were analysed by immunolabelling on thin slices for tyrosine hydroxylase enzyme. Tyrosine hydroxylase enzyme represents an indirect measurement of the production of the noradrenaline neurotransmitter in neurons of certain brain areas. […]

Data set [4] relates to hippocampal cells of the dentate gyrus (granule layer and hilus). The experiment in a line: Hoechst-positive cell count in hippocampal dentate gyrus after intranasal administration. It counts as in vivo, rat. The conditions noted are these: control (healthy) rats, intranasal once a day for four days. How it is done: The broken lines show regions of the Dentate Gyrus (DG-H and DG-Granule Layer) where cell counts were performed, shown in the graphs in FIG. 4B.
To check whether the opposite nature of the two different hproNGF isoforms could affect the number of hippocampal cells and whether the intranasal administration of proNGF could have an effect on diabetes-induced neuronal loss, Hoechst-positive cells were analysed by confocal microscopy in both the cell layers of the hippocampal dentate gyrus, the granule layer (GL) and the hilus (HL) (as shown in FIG. 4A). The rats were deeply anesthetized and transcardially perfused with 0.1 M phosphate buffer followed by 4% paraformaldehyde fixative in 0.1 M phosphate buffer. The brains were removed and cryoprotected with 30% sucrose in phosphate buffer. 40 μm-thick coronal sections of both hemispheres. ranging −2.40 /−3.72 mm from the bregma according to the Paxinos Rat Brain Atlas, were cut on a cryostat and then processed. The brain sections were pre-incubated for 2 hours at room temperature (RT) with PBS containing 10% donkey serum (v/v), 1% BSA (w/v) and 0.3% Triton X-100 (v/v). After washing with PBS, the sections were incubated (2 h, RT) with specific secondary antibodies. Subsequently, the sections were rinsed three times in PBS and incubated for 10 minutes with Hoechst dye for specific staining of the nuclei. […]

Data set [5] relates to hippocampal dentate gyrus neurogenesis. The experiment in a line: Hippocampal neurogenesis (BrdU, DCX, NeuN confocal microscopy) after intranasal administration. It counts as in vivo, rat. From the text: The box-plot graphs enclosed by a broken line show the results from the quantitative analyses in healthy rats (A) and diabetic rats (B) of cells that have incorporated BrdU and are at the same time positive for Doublecortin (DCX) (graphs enclosed by a dashed line box) or NeuN (graphs enclosed by a dotted line box). Median±interquartile, n=4 animals per experimental group.
It is also known that diabetic encephalopathy impairs the hippocampal neurogenesis process. In order to assess the effects induced by exogenous administration of the two hproNGF peptide isoforms on hippocampal neurogenesis, the hproNGF-A peptide for use according to the invention and the known hproNGF-B peptide were administered to healthy and diabetic rats.
In order to assess the effects of the treatments on dentate gyrus neurogenesis, at the time of diabetes induction, rats were inoculated with bromodeoxyuridine (BrdU), which intercalates into newly formed DNA, specifically labelling cells proliferating at the time of inoculation. Subsequently, a confocal microscopy analysis was performed by labelling with anti-BrdU antibodies and specific antibodies to detect the presence of immature neurons (antibodies to doublecortin, DCX) or mature neurons (antibodies to NeuN).

Data set [6] relates to hippocampal synaptic plasticity (DG-LTP). Description: Long-term potentiation (LTP) in dentate gyrus of hippocampal slices after intranasal administration. The conditions noted are these: intranasal once a day for four days, 60 minutes after HFS.

Regarding “mNGF: mature Nerve Growth Factor (NGF) peptide, neurotrophin used as comparator”, in the data set with PC12 cells [1], the “neuronal differentiation of PC12 cells (neurites)” value is “exhibited the characteristic extensions (neurites)”. Moreover, the “percentage of living cells” value in the data set with PC12 cells [2] is on record as “maintain a significant proportion of living cells”. Moreover, the “time the peptide remains in the culture medium after the stimulus” value with extracellular proteases was “not more than 8 hours”. In addition, the “arborization (sprouting) of noradrenergic fibres containing tyrosine hydroxylase in the locus coeruleus” value in data set [3] was “causes arborization (sprouting) of the noradrenergic fibres”.

Consider “hproNGF-B: already known human proNGF variant (accession number NM_002506.2), precursor of mature NGF, 221 amino acids long”, for which the “neuronal differentiation of PC12 cells (neurites)” value in the data set with PC12 cells [1] is “showed evident signs of suffering”. Also, in data set [4], the “number of cells in hilus and granule layer of dentate gyrus compared to saline-treated rats” value was “decreased significantly”. The “percentage of living cells” value with PC12 cells [2] was “induces a decrease in the percentage of living cells”. In data set [5] (diabetic rats), the “diabetes-induced alteration in the number of BrdU+-cells” value is reported as “no influence” and the “percentage of BrdU+-cells expressing DCX” value was “no influence”. In data set [5] (healthy rats), the “number of BrdU-immunopositive cells” value is reported as “significant reduction”; the “percentage of cells simultaneously immunopositive for BrdU and DCX” value was “significant reduction”. Moreover, in data set [6] (control groups (healthy animals)), the “extent of DG-LTP compared to saline-treated group” value is 28%. The “DG-LTP compared to saline-treated diabetic rats (improvement of streptozotocin-induced decrease)” value in data set [6] (diabetic rats (streptozotocin)) is given as “not different from that measured in saline-treated diabetic rats”.
